In patent US20260199323A1, “LIGAND COMPOUNDS FOR E3 UBIQUITIN LIGASE, PROTEIN DEGRADERS DEVELOPED ON BASIS OF LIGAND COMPOUNDS, AND USES THEREOF” (GLUETACS THERAPEUTICS (SHANGHAI) CO., LTD., priority 2021, published 2026):
Like-named read-outs stand apart in the source and are kept apart here. Each block holds one compound with its values, some of them ahead of it.

Legend:
[1] = tested on: CCRF-CEM; test: CCK-8 tumor cell proliferation, CCRF-CEM; assay type: cell-based, Human; parameters: IC50 for inhibiting the proliferation of tumor cells, CCRF-CEM: scale not given here; conditions: for IC50 for inhibiting the proliferation of tumor cells, CCRF-CEM: 96 h; for IC50: Homo sapiens, Table 18, FAK inhibitor based, CCRF-CEM, read-out: IC50 inhibiting proliferation of tumor cells, CCRF-CEM
Protocol: (§1) The tumor cells used herein were cultured in a cell culture medium listed in table 4 at 37° C. in an incubator with 5% CO2. Prior to experimentation, all cells used were correctly identified by STR profiling, and tested negative for mycoplasma through routine screenings.
(§2) IC50 values of the compounds of the present disclosure (including the compounds in Tables 1 and 3, and compounds of examples) were measured using the Meilun Cell Counting Kit-8 kit from Dalian Meilun Biotech Co., Ltd. Assay details are as follows: tumor cells were seeded in a 96-well plate at a density listed in Table 5. After 24 h, 100 μL of the inoculated cells were treated with 0.5 μL of the compounds of the present disclosure (including the compounds in Tables 1 and 3, and compounds of examples) at 10 different successively decreasing concentrations (starting at the highest concentration of 10 μM; 5-fold serial dilutions). After the cells were treated with the compounds of the present disclosure for a period of time, the cell viability detection reagent was added to the culture medium for cell viability assessment according to the instructions provided with the CCK-8 kit. […] The growth inhibition of the compounds of the present disclosure on cells was plotted by Prism Graphpad software, and the IC50 values of the compounds of the present disclosure were calculated therefrom.

[2] = tested on: Kasumi-1; test: CCK-8 tumor cell proliferation, Kasumi-1; assay type: cell-based, Human; conditions: 72 h
Protocol: as §1, §2

[3] = tested on: SR; test: CCK-8 tumor cell proliferation, SR; assay type: cell-based, Human; conditions: Table 12, designed based on CDK9 inhibitors; 72 h
Protocol: as §1, §2

[4] = tested on: MM.1S; test: CCK-8 tumor cell proliferation, MM.1S; assay type: cell-based; conditions: for IC50 for inhibiting the proliferation of tumor cells, MM.1S: 72 h; for IC50: Homo sapiens, MM1.S, Table 18, FAK inhibitor based, MM.1S, read-out: IC50 inhibiting proliferation of tumor cells, MM.1S
Protocol: as §1, §2

[5] = tested on: Mino; test: CCK-8 tumor cell proliferation, Mino; assay type: cell-based, Human; conditions: for IC50 for inhibiting the proliferation of tumor cells, Mino: 72 h; for IC50: Homo sapiens, Table 18, FAK inhibitor based, Mino, read-out: IC50 inhibiting proliferation of tumor cells, Mino
Protocol: as §1, §2

[6] = tested on: MDA-MB-231; test: CCK-8 tumor cell proliferation, MDA-MB-231; assay type: cell-based, Human; conditions: Homo sapiens; Table 18, FAK inhibitor based; MDA-MB-231; read-out: IC50 inhibiting proliferation of tumor cells, MDA-MB-231
Protocol: as §1, §2

[7] = tested on: SW620; test: CCK-8 tumor cell proliferation, SW620; assay type: cell-based, Human; conditions: Homo sapiens, SW-620; Table 18, FAK inhibitor based; SW620; read-out: IC50 inhibiting proliferation of tumor cells, SW620
Protocol: as §1, §2

[8] = tested on: CAL-62; test: CCK-8 tumor cell proliferation, CAL-62; assay type: cell-based, Human; conditions: Homo sapiens, CAL-62
Protocol: as §1, §2

[9] = tested on: PC-9; test: CCK-8 tumor cell proliferation, PC-9; assay type: cell-based, Human; conditions: Homo sapiens; Table 18, FAK inhibitor based; PC-9; read-out: IC50 inhibiting proliferation of tumor cells, PC-9
Protocol: The tumor cells used herein were cultured in a cell culture medium listed in table 4 at 37° C. in an incubator with 5% CO2.
as §2, with “After” for “IC50 values of the compounds of the present disclosure (including the compounds in Tables 1 and 3, and compounds of examples) were measured using the Meilun Cell Counting Kit-8 kit from Dalian Meilun Biotech Co., Ltd. Assay details are as follows: tumor cells were seeded in a 96-well plate at a density listed in Table 5. After”

[10] = tested on: Jurkat; test: CCK-8 tumor cell proliferation, Jurkat; assay type: cell-based, Human; conditions: Homo sapiens
Protocol: as §1, §2

[11] = tested on: MM.1R; test: CCK-8 tumor cell proliferation, MM.1R; assay type: cell-based
Protocol: as §1, §2

[12] = Table 16, designed based on BET inhibitors
[13] = Table 8, designed based on ER inhibitors
[14] = Table 18, FAK inhibitor based, read-out: IC50 inhibiting proliferation of tumor cells, CAL-62
[15] = Table 7, designed based on BTK inhibitors
[16] = Table 23, compared to Comparative Example compounds, read-out: Inhibitory activity (IC50, nM) against tumor cell proliferation, Jurkat
[17] = Table 23, compared to Comparative Example compounds, read-out: Inhibitory activity (IC50, nM) against tumor cell proliferation, CAL-62
[18] = Table 23, compared to Comparative Example compounds, read-out: Inhibitory activity (IC50, nM) against tumor cell proliferation, MM.1R
[19] = Table 19, IRAK4 inhibitor based, read-out: IC50 inhibiting proliferation of tumor cells, Jurkat
[20] = Table 19, IRAK4 inhibitor based, read-out: IC50 inhibiting proliferation of tumor cells, CAL-62
[21] = Table 19, IRAK4 inhibitor based, read-out: IC50 inhibiting proliferation of tumor cells, MM.1R

Compound: Cc1sc2c(c1C)C(c1ccc(Cl)cc1)=N[C@@H](CC(=O)N1CCN(Cc3ccc4c(c3)CN(C3CCC(=O)NC3=O)C4=O)CC1)c1nnc(C)n1-2 (stereo partly drawn) [GT-02967, 3-(5-((4-(2-((S)-4-(4-chlorophenyl)-2,3,9-trimethyl-6H-thieno[3,2-f][1,2,4]triazolo[4,3-a][1,4]diazepin-6-yl)acetyl)piperazin-1-yl)methyl)-1-oxoisoindolin-2-yl)piperidine-2,6-dione]
IC50 for inhibiting the proliferation of tumor cells, CCRF-CEM [1, 12]: A+ | IC50 for inhibiting the proliferation of tumor cells, Kasumi-1 [2, 12]: A+

Compound: CC(C)(C)c1cnc(CSc2cnc(NC(=O)C3CCN(Cc4ccc5c(c4)CN(C4CCC(=O)NC4=O)C5=O)CC3)s2)o1 (stereo not shown) [GT-03242, N-(5-(((5-(tert-butyl)oxazol-2-yl)methyl)thio)thiazol-2-yl)-1-((2-(2,6-dioxopiperidin-3-yl)-1-oxoisoindolin-5-yl)methyl)piperidine-4-carboxamide]
IC50 for inhibiting the proliferation of tumor cells, SR [3]: A+ | IC50 for inhibiting the proliferation of tumor cells, MM.1S ([4]; Table 12, designed based on CDK9 inhibitors): A+

Compound: O=C1CCC(N2Cc3cc(CN4CCN(c5ccc(C(=C(CCCl)c6ccccc6)c6ccccc6)cc5)CC4)ccc3C2=O)C(=O)N1 (stereo not shown) [GT-03637, 3-(5-((4-(4-(4-chloro-1,2-diphenylbut-1-en-1-yl)phenyl)piperazin-1-yl)methyl)-1-oxoisoindolin-2-yl)piperidine-2,6-dione]
IC50 for inhibiting the proliferation of tumor cells, Mino [5, 13]: A+ | IC50 for inhibiting the proliferation of tumor cells, CCRF-CEM [1, 13]: A+ | IC50 for inhibiting the proliferation of tumor cells, Kasumi-1 [2, 13]: A+

Compound: CNC(=O)c1ccccc1Nc1cc(Nc2ccc(N3CCC(N(C)Cc4ccc5c(c4)CN(C4CCC(=O)NC4=O)C5=O)CC3)cc2OC)ncc1C(F)(F)F (stereo not shown) [GT-03679, 2-((2-((4-(4-(((2-(2,6-dioxopiperidin-3-yl)-1-oxoisoindolin-5-yl)methyl)(methyl)amino)piperidin-1-yl)-2-methoxyphenyl)amino)-5-(trifluoromethyl)pyridin-4-yl)amino)-N-methylbenzamide]
IC50 [1]: 500 to 1000 nM | IC50 [6]: < 50 nM | IC50 [7]: 100 to 500 nM | IC50 [4]: 100 to 500 nM | IC50 [8, 14]: 50 to 100 nM

Compound: NC(=O)c1ccc(C2CCN(Cc3ccc4c(c3)CN(C3CCC(=O)NC3=O)C4=O)CC2)nc1-c1ccc(Oc2ccccc2)cc1 (stereo not shown) [GT-03693, 6-(1-((2-(2,6-dioxopiperidin-3-yl)-1-oxoisoindolin-5-yl)methyl)piperidin-4-yl)-2-(4-phenoxyphenyl)nicotinamide]
IC50 for inhibiting the proliferation of tumor cells, Mino [5, 15]: A+ | IC50 for inhibiting the proliferation of tumor cells, CCRF-CEM [1, 15]: A+ | IC50 for inhibiting the proliferation of tumor cells, MM.1S [4, 15]: A+

Compound: CS(=O)(=O)c1cccc(CNc2nc(Nc3ccc(N4CCN(Cc5ccc6c(c5)CN(C5CCC(=O)NC5=O)C6=O)CC4)cc3)ncc2C(F)(F)F)c1 (stereo not shown) [GT-03792, 3-(5-((4-(4-((4-((3-(methylsulfonyl)benzyl)amino)-5-(trifluoromethyl)pyrimidin-2-yl)amino)phenyl)piperazin-1-yl)methyl)-1-oxoisoindolin-2-yl)piperidine-2,6-dione]
IC50 [5]: 100 to 500 nM | IC50 [1]: < 50 nM | IC50 [6]: < 50 nM | IC50 [7]: < 50 nM | IC50 [9]: 1000 to 5000 nM | IC50 [4]: < 50 nM | IC50 [8, 14]: < 50 nM

The remaining lines, values ahead:

IC50 [5]: 50 to 100 nM | IC50 [1]: < 50 nM | IC50 [6]: < 50 nM | IC50 [7]: < 50 nM | IC50 [4]: < 50 nM | IC50 [8, 14]: < 50 nM
Compound: CS(=O)(=O)c1cccc(CNc2nc(Nc3ccc(N4CCN(Cc5ccc6c(c5F)CN(C5CCC(=O)NC5=O)C6=O)CC4)cc3)ncc2C(F)(F)F)c1 (stereo not shown) [GT-03817, 3-(4-fluoro-5-((4-(4-((4-((3-(methylsulfonyl)benzyl)amino)-5-(trifluoromethyl)pyrimidin-2-yl)amino)phenyl)piperazin-1-yl)methyl)-1-oxoisoindolin-2-yl)piperidine-2,6-dione]

IC50 [5]: < 50 nM | IC50 [1]: < 50 nM | IC50 [6]: < 50 nM | IC50 [7]: < 50 nM | IC50 [4]: < 50 nM | IC50 [8, 14]: < 50 nM
Compound: CS(=O)(=O)c1cccc(CNc2nc(Nc3ccc(N4CCN(Cc5cc6c(cc5F)C(=O)N(C5CCC(=O)NC5=O)C6)CC4)cc3)ncc2C(F)(F)F)c1 (stereo not shown) [GT-03818, 3-(6-fluoro-5-((4-(4-((4-((3-(methylsulfonyl)benzyl)amino)-5-(trifluoromethyl)pyrimidin-2-yl)amino)phenyl)piperazin-1-yl)methyl)-1-oxoisoindolin-2-yl)piperidine-2,6-dione]

IC50 [10, 16]: 100 to 500 nM | IC50 [8, 17]: 5000 to 10000 nM | IC50 [11, 18]: 5000 to 10000 nM
Compound: CCc1cc2c(cc1N1CCC(N3CCN(CCCc4ccc5c(c4)CN(C4CCC(=O)NC4=O)C5=O)CC3)CC1)C(C)(C)c1[nH]c3cc(C#N)ccc3c1C2=O (stereo not shown) [GT-04457, 8-(4-(4-(3-(2-(2,6-dioxopiperidin-3-yl)-1-oxoisoindolin-5-yl)propyl)piperazin-1-yl)piperidin-1-yl)-9-ethyl-6,6-dimethyl-11-oxo-6,11-dihydro-5H-benzo[b]carbazole-3-carbonitrile]

IC50 [10, 16]: 100 to 500 nM | IC50 [8, 17]: 1000 to 5000 nM | IC50 [11, 18]: 1000 to 5000 nM
Compound: CCc1cc2c(cc1N1CCC(N3CCN(CCc4ccc5c(c4)CN(C4CCC(=O)NC4=O)C5=O)CC3)CC1)C(C)(C)c1[nH]c3cc(C#N)ccc3c1C2=O (stereo not shown) [GT-04512, 8-(4-(4-(2-(2-(2,6-dioxopiperidin-3-yl)-1-oxoisoindolin-5-yl)ethyl)piperazin-1-yl)piperidin-1-yl)-9-ethyl-6,6-dimethyl-11-oxo-6,11-dihydro-5H-benzo[b]carbazole-3-carbonitrile]

IC50 [10, 16]: 1000 to 5000 nM | IC50 [8, 17]: 1000 to 5000 nM | IC50 [11, 18]: 100 to 500 nM
Compound: COc1cc(N2CCC(N(C)CCc3ccc4c(c3)CN(C3CCC(=O)NC3=O)C4=O)CC2)ccc1Nc1ncc(Cl)c(Nc2ccccc2P(C)(C)=O)n1 (stereo not shown) [GT-04513, 3-(5-(2-((1-(4-((5-chloro-4-((2-(dimethylphosphoryl)phenyl)amino)pyrimidin-2-yl)amino)-3-methoxyphenyl)piperidin-4-yl)(methyl)amino)ethyl)-1-oxoisoindolin-2-yl)piperidine-2,6-dione]

IC50 [10, 19]: < 50 nM | IC50 [8, 20]: 100 to 500 nM | IC50 [11, 21]: 50 to 100 nM
Compound: CC(C)(O)c1cc2nc(C3CCN(Cc4ccc5c(c4F)CN(C4CCC(=O)NC4=O)C5=O)CC3)oc2cc1NC(=O)c1cccc(C(F)(F)F)n1 (stereo not shown) [GT-04518, N-(2-(1-((2-(2,6-dioxopiperidin-3-yl)-4-fluoro-1-oxoisoindolin-5-yl)methyl)piperidin-4-yl)-5-(2-hydroxypropan-2-yl)benzo[d]oxazol-6-yl)-6-(trifluoromethyl)picolinamide]

IC50 [10, 19]: < 50 nM | IC50 [8, 20]: < 50 nM | IC50 [11, 21]: < 50 nM
Compound: CC(C)(O)c1cc2nc(C3CCN(Cc4cc5c(cc4F)C(=O)N(C4CCC(=O)NC4=O)C5)CC3)oc2cc1NC(=O)c1cccc(C(F)(F)F)n1 (stereo not shown) [GT-04519, N-(2-(1-((2-(2,6-dioxopiperidin-3-yl)-6-fluoro-1-oxoisoindolin-5-yl)methyl)piperidin-4-yl)-5-(2-hydroxypropan-2-yl)benzo[d]oxazol-6-yl)-6-(trifluoromethyl)picolinamide]
